For orientation: IC50 means the midpoint of a concentration-inhibition curve.

For the assay, the target named is T1, Recombinant autotaxin (Homo sapiens, UniProt Q13822).
T1 construct: made in house; host or cells: Hi5 insect cells (baculovirus)
Put plainly: Autotaxin assay (Amplex Red, LPC substrate). It is filed as biochemical. To be noted: recombinant autotaxin, LPC substrate, Amplex Red detection; values given as upper bounds. Put shortly: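 Recombinant autotaxin (Hi5 baculovirus, 16 ng) pre-incubated with compound 30 min at 22° C, then reacted with 75 μM egg LPC for 90 min at 37° C. Choline released is coupled to H2O2 and Amplex Red fluorescence (ex 485/em 612 nm). IC50 from ten 1:3 dilutions from 30 μM, duplicates, normalised to 500 μM C14 LPA.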

As to `O=C(OCc1cc(C(F)(F)F)cc(C(F)(F)F)c1)N1CCN(C2CCN(C(=O)c3ccc4[nH]c(=S)[nH]c4c3)CC2)CC1` [Compound 161, 4-[1-(2-Thioxo-2,3-dihydro-1H-benzoimidazole-5-carbonyl)-piperidin-4-yl]-piperazine-1-carboxylic acid 3,5-bis-trifluoromethyl-benzyl ester], the half-inhibitory concentration (IC50) was less than 1 µM.

On to `O=C(OCc1cc(C(F)(F)F)cc(C(F)(F)F)c1)N1CCC(N2CCN(C(=O)c3ccc4[nH]nnc4c3)CC2)CC1` [Compound 162, 4-[4-(1H-Benzotriazole-5-carbonyl)-piperazin-1-yl]-piperidine-1-carboxylic acid 3,5-bis-trifluoromethyl-benzyl ester], for which the IC50 is less than 1 µM.

With `O=C(OCc1cc(C(F)(F)F)cc(C(F)(F)F)c1)N1CCN(C2CCN(C(=O)c3ccc4[nH]c(=O)sc4c3)CC2)CC1` [Compound 163, 4-[1-(2-Oxo-2,3-dihydro-benzothiazole-6-carbonyl)-piperidin-4-yl]-piperazine-1-carboxylic acid 3,5-bis-trifluoromethyl-benzyl ester], the concentration for half-maximal inhibition (IC50) was less than 1 µM.

As to `O=C(CC(=O)N1CCC(N2CCN(C(=O)c3ccc4[nH]nnc4c3)CC2)CC1)c1ccc(C(F)(F)F)cc1` [Compound 164, 1-{4-[4-(1H-Benzotriazole-5-carbonyl)-piperazin-1-yl]-piperidin-1-yl}-3-(4-trifluoromethyl-phenyl)-propane-1,3-dione], the half-inhibitory concentration (IC50) is less than 10 µM.

On to `O=C(OCc1cc(F)c(F)c(C(F)(F)F)c1)N1CCN(C2CCN(C(=O)c3ccc4[nH]nnc4c3)CC2)CC1` [Compound 165, 4-[1-(1H-Benzotriazole-5-carbonyl)-piperidin-4-yl]-piperazine-1-carboxylic acid 3,4-difluoro-5-trifluoromethyl-benzyl ester], for which the concentration for half-maximal inhibition (IC50) is less than 1 µM.

For the molecule `O=C(OCc1ccc(OC(F)(F)F)c(Br)c1)N1CCN(C2CCN(C(=O)c3ccc4[nH]nnc4c3)CC2)CC1` [Compound 166, 4-[1-(1H-Benzotriazole-5-carbonyl)-piperidin-4-yl]-piperazine-1-carboxylic acid 3-bromo-4-trifluoromethoxy-benzyl ester], the IC50 was less than 1 µM.

On to `O=C(OCc1ccc(OC(F)F)cc1)N1CCN(C2CCN(C(=O)c3ccc4[nH]nnc4c3)CC2)CC1` [Compound 167, 4-[1-(1H-Benzotriazole-5-carbonyl)-piperidin-4-yl]-piperazine-1-carboxylic acid 4-difluoromethoxy-benzyl ester], for which the IC50 was less than 1 µM.

As to `O=C(OCc1ccc(SC(F)F)cc1)N1CCN(C2CCN(C(=O)c3ccc4[nH]nnc4c3)CC2)CC1` [Compound 168, 4-[1-(1H-Benzotriazole-5-carbonyl)-piperidin-4-yl]-piperazine-1-carboxylic acid 4-difluoromethylsulfanyl-benzyl ester], the IC50 is less than 1 µM.

For the molecule `C[C@@H](OC(=O)N1CCN(C2CCN(C(=O)c3ccc4[nH]nnc4c3)CC2)CC1)c1cc(C(F)(F)F)cc(C(F)(F)F)c1` [Compound 169, 4-[1-(1H-Benzotriazole-5-carbonyl)-piperidin-4-yl]-piperazine-1-carboxylic acid (R)-1-(3,5-bis-trifluoromethyl-phenyl)-ethyl ester], the IC50 is less than 1 µM.

With `Cc1ccc(C(OC(=O)N2CCN(C3CCN(C(=O)c4ccc5[nH]nnc5c4)CC3)CC2)(C(F)(F)F)C(F)(F)F)cc1` [Compound 170, 4-[1-(1H-Benzotriazole-5-carbonyl)-piperidin-4-yl]-piperazine-1-carboxylic acid 2,2,2-trifluoro-1-p-tolyl-1-trifluoromethyl-ethyl ester], the 50% inhibitory concentration (IC50) was less than 10 µM.

As to `C[C@H](OC(=O)N1CCN(C2CCN(C(=O)c3ccc4[nH]nnc4c3)CC2)CC1)c1cc(C(F)(F)F)cc(C(F)(F)F)c1` [Compound 171, 4-[1-(1H-Benzotriazole-5-carbonyl)-piperidin-4-yl]-piperazine-1-carboxylic acid (S)-1-(3,5-bis-trifluoromethyl-phenyl)-ethyl ester], the half-inhibitory concentration (IC50) was less than 10 µM.

`CC(OC(=O)N1CCN(C2CCN(C(=O)c3ccc4[nH]nnc4c3)CC2)CC1)c1cc(C(F)(F)F)cc(C(F)(F)F)c1` (stereo not shown) [Compound 172, 4-[1-(1H-Benzotriazole-5-carbonyl)-piperidin-4-yl]-piperazine-1-carboxylic acid 1-(3,5-bis-trifluoromethyl-phenyl)-ethyl ester]: the half-inhibitory concentration (IC50) is less than 10 µM.

In the case of `Cc1oc(-c2ccccc2)cc1COC(=O)N1CCN(C2CCN(C(=O)c3ccc4[nH]nnc4c3)CC2)CC1` [Compound 173, 4-[1-(1H-Benzotriazole-5-carbonyl)-piperidin-4-yl]-piperazine-1-carboxylic acid 2-methyl-5-phenyl-furan-3-ylmethyl ester], the half-maximal inhibitory concentration (IC50) is less than 10 µM.

For the molecule `Cc1nc(-c2ccc(Cl)cc2)sc1COC(=O)N1CCN(C2CCN(C(=O)c3ccc4[nH]nnc4c3)CC2)CC1` [Compound 174, 4-[1-(1H-Benzotriazole-5-carbonyl)-piperidin-4-yl]-piperazine-1-carboxylic acid 2-(4-chloro-phenyl)-4-methyl-thiazol-5-ylmethyl ester], the half-inhibitory concentration (IC50) was less than 10 µM.

In the case of `O=C(OCC1CN(c2ccc(Cl)cc2)C(=O)O1)N1CCN(C2CCN(C(=O)c3ccc4[nH]nnc4c3)CC2)CC1` (stereo not shown) [Compound 175, 4-[1-(1H-Benzotriazole-5-carbonyl)-piperidin-4-yl]-piperazine-1-carboxylic acid 3-(4-chloro-phenyl)-2-oxo-oxazolidin-5-ylmethyl ester], the concentration for half-maximal inhibition (IC50) is less than 10 µM.

In the case of `Cc1ccc(C(C)CC(=O)N2CCN(C3CCN(C(=O)c4ccc5[nH]nnc5c4)CC3)CC2)cc1C` (stereo not shown) [Compound 176, 1-{4-[1-(1H-Benzotriazole-5-carbonyl)-piperidin-4-yl]-piperazin-1-yl}-3-(3,4-dimethyl-phenyl)-butan-1-one], the IC50 is less than 30 µM.

As to `CC(CC(=O)N1CCN(C2CCN(C(=O)c3ccc4[nH]nnc4c3)CC2)CC1)c1ccc(C(F)(F)F)cc1` (stereo not shown) [Compound 177, 1-{4-[1-(1H-Benzotriazole-5-carbonyl)-piperidin-4-yl]-piperazin-1-yl}-3-(4-trifluoromethyl-phenyl)-butan-1-one], the IC50 is less than 10 µM.

For the molecule `O=C(OC1(c2cc(C(F)(F)F)cc(C(F)(F)F)c2)CC1)N1CCN(C2CCN(C(=O)c3ccc4[nH]nnc4c3)CC2)CC1` [Compound 178, 4-[1-(1H-Benzotriazole-5-carbonyl)-piperidin-4-yl]-piperazine-1-carboxylic acid 1-(3,5-bis-trifluoromethyl-phenyl)-cyclopropyl ester], the IC50 is less than 1 µM.

Consider `O=C(c1ccc2[nH]nnc2c1)N1CCC(N2CCN(C(=O)C3CC3c3ccc(Cl)cc3)CC2)CC1` (stereo not shown) [Compound 179, (1H-Benzoriazol-5-yl)-(4-{4-[2-(4-chloro-phenyl)-cyclopropanecarbonyl]-piperazin-1-yl}-piperidin-1-yl)-methanone], for which the IC50 was less than 10 µM.

`O=C(CN1CCC(N2CCN(C(=O)c3ccc4[nH]nnc4c3)CC2)CC1)Nc1cc(C(F)(F)F)cc(C(F)(F)F)c1` [Compound 180, 2-{4-[4-(1H-Benzotriazole-5-carbonyl)-piperazin-1-yl]-piperidin-1-yl}-N-(3,5-bis-trifluoromethyl-phenyl)-acetamide]: the IC50 is less than 10 µM.

For `COc1ccc(Cl)cc1NC(=O)CN1CCC(N2CCN(C(=O)c3ccc4[nH]nnc4c3)CC2)CC1` [Compound 181, 2-{4-[4-(1H-Benzotriazole-5-carbonyl)-piperazin-1-yl]-piperidin-1-yl}-N-(5-chloro-2-methoxy-phenyl)-acetamide], the IC50 was less than 10 µM.

As to `CN(C1CCN(C(=O)OCc2ccc(C(F)(F)F)cc2)CC1)C1CCN(C(=O)c2ccc3[nH]nnc3c2)C1` (stereo not shown) [Compound 182, 4-{[1-(1H-Benzotriazole-5-carbonyl)-pyrrolidin-3-yl]-methyl-amino}-piperidine-1-carboxylic acid 4-trifluoromethyl-benzyl ester], the IC50 was less than 10 µM.

As for `O=C(OCc1cc(Cl)cc(C(F)(F)F)c1)N1CCN(C2CCN(S(=O)(=O)c3ccc4[nH]c(=O)oc4c3)CC2)CC1` [Compound 183, 4-[1-(2-Oxo-2,3-dihydro-benzooxazole-6-sulfonyl)-piperidin-4-yl]-piperazine-1-carboxylic acid 3-chloro-5-trifluoromethyl-benzyl ester], the IC50 is less than 10 µM.

`O=C(OCc1cc(C(F)(F)F)cc(C(F)(F)F)c1)N1CCN(C2CCN(C(=O)c3ccc4[nH]nnc4c3)CC2)C(=O)C1` [Compound 184, 4-[1-(1H-Benzotriazole-5-carbonyl)-piperidin-4-yl]-3-oxo-piperazine-1-carboxylic acid 3,5-bis-trifluoromethyl-benzyl ester]: the IC50 is less than 1 µM.

With `O=C(NC1CCC(N2CCN(C(=O)OCc3ccccc3)CC2)CC1)c1ccc2[nH]nnc2c1` (stereo not shown) [Compound 185, 4-{4-[(1H-Benzotriazole-5-carbonyl)-amino]-cyclohexyl}-piperazine-1-carboxylic acid benzyl ester], the IC50 was less than 30 µM.

Take `O=C(NC1CCC(N2CCN(C(=O)OCc3cc(C(F)(F)F)cc(C(F)(F)F)c3)CC2)CC1)c1ccc2[nH]nnc2c1` (stereo not shown) [Compound 186, 4-{4-[(1H-Benzotriazole-5-carbonyl)-amino]-cyclohexyl}-piperazine-1-carboxylic acid 3,5-bis-trifluoromethyl-benzyl ester]: the IC50 was less than 1 µM.

In the case of `O=C(NC1CCC(N2CCN(C(=O)OCc3cc(Cl)cc(C(F)(F)F)c3)CC2)CC1)c1ccc2[nH]nnc2c1` (stereo not shown) [Compound 187, 4-{4-[(1H-Benzotriazole-5-carbonyl)-amino]-cyclohexyl}-piperazine-1-carboxylic acid 3-chloro-5-trifluoromethyl-benzyl ester], the IC50 is less than 1 µM.

For `O=C(NC1CCC(N2CCN(C(=O)OCc3ccc(SC(F)(F)F)cc3)CC2)CC1)c1ccc2[nH]nnc2c1` (stereo not shown) [Compound 188, 4-{4-[(1H-Benzotriazole-5-carbonyl)-amino]-cyclohexyl}-piperazine-1-carboxylic acid 4-trifluoromethylsulfanyl-benzyl ester], the IC50 was less than 10 µM.
